Biological target: Amyloid-beta precursor protein (Homo sapiens, UniProt P05067)
Assay: Binding affinity to Amyloid-beta (unknown origin) (1 to 42 residues) assessed as dissociation constant incubated for 30 mins by fluorescence based analysis

Chain of Amyloid-beta precursor protein (P05067 whole entry, the tested form may be a part): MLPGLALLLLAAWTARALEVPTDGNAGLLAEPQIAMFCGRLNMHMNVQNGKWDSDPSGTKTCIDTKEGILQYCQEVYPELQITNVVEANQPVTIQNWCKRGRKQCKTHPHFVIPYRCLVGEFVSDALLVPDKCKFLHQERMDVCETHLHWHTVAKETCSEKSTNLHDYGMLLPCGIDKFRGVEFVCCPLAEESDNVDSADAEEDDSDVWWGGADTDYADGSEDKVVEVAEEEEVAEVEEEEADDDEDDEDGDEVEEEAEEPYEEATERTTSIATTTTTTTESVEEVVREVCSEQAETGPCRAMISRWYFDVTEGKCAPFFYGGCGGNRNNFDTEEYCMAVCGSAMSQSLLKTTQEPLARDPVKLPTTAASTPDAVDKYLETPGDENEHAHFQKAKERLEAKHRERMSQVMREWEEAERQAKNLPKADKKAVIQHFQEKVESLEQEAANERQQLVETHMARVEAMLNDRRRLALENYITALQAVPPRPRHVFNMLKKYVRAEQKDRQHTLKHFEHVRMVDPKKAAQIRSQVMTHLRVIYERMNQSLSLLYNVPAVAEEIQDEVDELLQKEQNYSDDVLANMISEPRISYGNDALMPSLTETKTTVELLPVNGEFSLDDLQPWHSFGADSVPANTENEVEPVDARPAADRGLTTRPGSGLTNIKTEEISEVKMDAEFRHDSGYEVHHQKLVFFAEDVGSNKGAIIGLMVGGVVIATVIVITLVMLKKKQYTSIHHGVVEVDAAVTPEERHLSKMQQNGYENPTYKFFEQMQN

Kd: 7.5 nM
Compound: CCOC(=O)CN1C(=O)/C(=C/c2ccc3c(c2)Sc2ccccc2N3C)SC1=S

From ChEMBL document CHEMBL5356946, “Recent progress of small-molecule-based theranostic agents in Alzheimer's disease” (RSC Med Chem, 2023)
